Test results from US11214594B2, “Antimicrobial peptide having synergistic antibacterial effect with antibiotics on multidrug resistant bacteria, and use thereof” (priority 2016, dated 2022).
Like-named read-outs stand apart in the source and are kept apart here. Where a SMILES comes first, the peptide text is derived from it.

What was measured:
P. aeruginosa = assay: microbe, parasite or virus in culture; type: cell-based, Pseudomonas aeruginosa
In short: (§1)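 Broth microdilution in MH medium: strains diluted to 2×10^6 CFU were mixed with equal volumes of twofold serial peptide dilutions in MH medium. MIC was taken as the lowest peptide concentration preventing bacterial growth.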

E. coli [1] = assay: MIC of antibiotic during combined treatment with antimicrobial peptide; type: cell-based, Escherichia coli; conditions: for Antibiotic MIC, Erythromycin / Antibiotic MIC, Linezolid / Antibiotic MIC, Vancomycin: E. coli
In short: (§2)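 MIC values for mixed peptide plus antibiotic solutions were measured in MH medium.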

B. subtilis = assay: microbe, parasite or virus in culture; type: cell-based, Bacillus subtilis
In short: as §1

MDREC 1229 [2] = type: cell-based, Escherichia coli
In short: (§3)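 Antibiotic MIC came from antibiotic dilutions added to bacteria (2×10^6 CFU/ml, MH medium) already combined with peptide serially diluted 2:1 from its own MIC. Swapping the roles of the two agents gave the peptide MIC.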

E. coli [3] = type: cell-based, Escherichia coli; conditions: E. coli
In short: as §3

MDREC 1229 [4] = assay: MIC of antibiotic during combined treatment with antimicrobial peptide; type: cell-based, Escherichia coli
Protocol: Specifically, the strains described in [Table 2] were prepared and diluted with an MH medium such that the number of bacteria was 2×10^6 colony-forming units (CFUs) per 1 ml, 100 μl of the diluted strains was each aliquoted into a 96-well microtiter plate, and then 50 μl of a peptide solution diluted with the MH medium from the MIC value (solution diluted stepwise at 2: 1) was added to each well. Thereafter, the MIC value of each mixed solution was determined by diluting the antibiotic solution with the MH medium, adding 50 μl of the diluted solution to each well, and performing an experiment even under a reversed condition.

S. epidermidis = assay: microbe, parasite or virus in culture; type: cell-based, Staphylococcus epidermidis
In short: as §1

MDRAB 12035 = assay: MIC of antimicrobial peptide during combined treatment with antibiotic; type: cell-based, Acinetobacter baumannii
In short: as §3

A. baumannii [5] = assay: as above; type: cell-based, Acinetobacter baumannii
In short: as §3

MDREC 1229 [6] = assay: microbe, parasite or virus in culture; type: cell-based, Escherichia coli
In short: as §1

E. coli [7] = assay: microbe, parasite or virus in culture; type: cell-based, Escherichia coli
In short: as §1

A. baumannii [8] = assay: MIC of antibiotic during combined treatment with antimicrobial peptide; type: cell-based, Acinetobacter baumannii; conditions: for Antibiotic MIC, Erythromycin / Antibiotic MIC, Linezolid / Antibiotic MIC, Vancomycin: A. baumannii
In short: as §2

MDRST 8009 = type: cell-based, Salmonella typhimurium; conditions: agent alone
In short: as §1

[9] = with Erythromycin […] (Conc./MIC 1)
[10] = peptide treatment concentration 1 μg/ml
[11] = peptide treatment concentration 2 μg/ml
[12] = peptide treatment concentration 4 μg/ml
[13] = peptide treatment concentration 6 μg/ml
[14] = peptide treatment concentration 8 μg/ml
[15] = peptide treatment concentration 16 μg/ml
[16] = peptide treatment concentration 32 μg/ml
[17] = peptide treatment concentration 64 μg/ml
[18] = erythromycin 4 μg/ml (Conc./MIC 1/8)
[19] = erythromycin 8 μg/ml (Conc./MIC 1/4)
[20] = erythromycin 16 μg/ml (Conc./MIC 1/2)
[21] = erythromycin 32 μg/ml (Conc./MIC 1)
[22] = vancomycin 512 μg/ml (Conc./MIC 1/2)
[23] = vancomycin 1024 μg/ml (Conc./MIC 1)
[24] = combined with peptide at 1 μg/ml
[25] = combined with peptide at 2 μg/ml
[26] = combined with peptide at 4 μg/ml
[27] = combined with peptide at 6 μg/ml
[28] = combined with peptide at 8 μg/ml
[29] = combined with peptide at 16 μg/ml
[30] = combined with peptide at 32 μg/ml
[31] = combined with peptide at 64 μg/ml

CC[C@H](C)[C@H](NC(=O)[C@H](CCCCN)NC(=O)[C@H](Cc1c[nH]c2ccccc12)NC(=O)[C@@H](N)CCCNC(=N)N)C(=O)N[C@@H](Cc1ccccc1)C(=O)N[C@@H](CCCCN)C(=O)N[C@@H](CCCCN)C(=O)N[C@H](C(=O)N1CCC[C@H]1C(=O)N[C@@H](CCCCN)C(=O)N[C@@H](CC(C)C)C(=O)N[C@@H](CC(C)C)C(=O)N[C@@H](Cc1c[nH]cn1)C(=O)N[C@@H](CO)C(=O)N[C@@H](CC(C)C)C(=O)N[C@@H](CCCCN)C(=O)N[C@@H](CCCCN)C(=O)N[C@@H](Cc1ccccc1)C(N)=O)[C@@H](C)CC [PapMA-8, RWK IFK KIP KLL HSL KKF-NH2] (H-RWKIFKKIPKLLHSLKKF-NH2; N-terminus assumed)
at least twice as high: Antibacterial activity relative to PapMA-1 (E. coli [7]; E. coli)
4 µg/mL: Antibiotic MIC, Erythromycin (E. coli [1]; erythromycin combined with peptide at 6 μg/ml) | Antibiotic MIC, Erythromycin (MDREC 1229 [4]; [13]) | Peptide MIC during treatment with erythromycin (MDRAB 12035; [20]) | Peptide MIC during treatment with linezolid (MDRAB 12035; linezolid 64 μg/ml (Conc./MIC 1/8)) | Peptide MIC during treatment with vancomycin (MDRAB 12035; vancomycin […] (Conc./MIC 1/8)) | Peptide MIC during treatment with antibiotic (A. baumannii [5]; [18]) | Peptide MIC during treatment with antibiotic (A. baumannii [5]; [19]) | Peptide MIC during treatment with antibiotic (A. baumannii [5]; linezolid 32 μg/ml (Conc./MIC 1/8)) | Peptide MIC during treatment with antibiotic (A. baumannii [5]; vancomycin […] (Conc./MIC 1/8)) | Antibiotic MIC, Erythromycin (A. baumannii [8]; [26]) | Antibiotic MIC, Erythromycin (A. baumannii [8]; [27]) | Antibiotic MIC, Linezolid (A. baumannii [8]; [28]) | Antibiotic MIC, Vancomycin (A. baumannii [8]; [29])
32 µg/mL: Antibiotic MIC, Linezolid (E. coli [1]; linezolid combined with peptide at 6 μg/ml) | Antibiotic MIC, Vancomycin (E. coli [1]; vancomycin combined with peptide at 6 μg/ml) | Antibiotic MIC, Linezolid (MDREC 1229 [4]; [13]) | Antibiotic MIC, Linezolid (MDREC 1229 [4]; [14]) | Antibiotic MIC, Vancomycin (MDREC 1229 [4]; [14]) | Minimal inhibitory concentration MIC (E. coli [7]; 16 h) | Antibiotic MIC, Erythromycin (A. baumannii [8]; [24]) | Antibiotic MIC, Linezolid (A. baumannii [8]; [26]) | Antibiotic MIC, Vancomycin (A. baumannii [8]; [26])
significantly increased: Antibacterial activity (in words) (P. aeruginosa; P. aeruginosa and S. typhimurium)
higher level than the PapMA-1 peptide: Synergistic effect of antibacterial activity with existing antibiotics compared with PapMA-1 (E. coli [1]; E. coli and MDREC1229) | Synergistic effect of antibacterial activity with existing antibiotics compared with PapMA-1 (A. baumannii [8]; A. baumannii and MDRAB 12035)
0.125 µg/mL: Antibiotic MIC, Erythromycin (MDREC 1229 [4]; [16]) | Antibiotic MIC, Erythromycin (A. baumannii [8]; [29])
0.5 µg/mL: Antibiotic MIC, Erythromycin (E. coli [1]; erythromycin combined with peptide at 8 μg/ml) | Antibiotic MIC, Erythromycin (MDREC 1229 [4]; [15])
>128 µg/mL: Antibiotic MIC, Linezolid (E. coli [1]; linezolid combined with peptide at 1 μg/ml) | Antibiotic MIC, Linezolid (E. coli [1]; linezolid combined with peptide at 2 μg/ml) | Antibiotic MIC, Vancomycin (E. coli [1]; vancomycin combined with peptide at 1 μg/ml) | Antibiotic MIC, Vancomycin (E. coli [1]; vancomycin combined with peptide at 2 μg/ml) | Minimal inhibitory concentration MIC (B. subtilis) | Antibiotic MIC, Erythromycin (MDREC 1229 [4]; [10]) | Antibiotic MIC, Linezolid (MDREC 1229 [4]; [10]) | Antibiotic MIC, Vancomycin (MDREC 1229 [4]; [10]) | Antibiotic MIC, Linezolid (MDREC 1229 [4]; [11]) | Antibiotic MIC, Vancomycin (MDREC 1229 [4]; [11]) | Antibiotic MIC, Vancomycin (MDREC 1229 [4]; [12]) | Antibiotic MIC, Vancomycin (MDREC 1229 [4]; [13]) | Minimal inhibitory concentration MIC (S. epidermidis) | Antibiotic MIC, Linezolid (A. baumannii [8]; [24]) | Antibiotic MIC, Vancomycin (A. baumannii [8]; [24]) | Antibiotic MIC, Vancomycin (A. baumannii [8]; [25])
2 µg/mL: Antibiotic MIC, Linezolid (E. coli [1]; linezolid combined with peptide at 16 μg/ml) | Antibiotic MIC, Vancomycin (E. coli [1]; vancomycin combined with peptide at 16 μg/ml) | Peptide MIC during treatment with linezolid (MDRAB 12035; linezolid […] (Conc./MIC 1/4)) | Peptide MIC during treatment with vancomycin (MDRAB 12035; [22]) | Peptide MIC during treatment with vancomycin (MDRAB 12035; vancomycin […] (Conc./MIC 1/4)) | Peptide MIC during treatment with antibiotic (A. baumannii [5]; [20]) | Peptide MIC during treatment with antibiotic (A. baumannii [5]; linezolid 64 μg/ml (Conc./MIC 1/4)) | Peptide MIC during treatment with antibiotic (A. baumannii [5]; linezolid […] (Conc./MIC 1/2))
0 µg/mL: Antibiotic MIC, Erythromycin (E. coli [1]; erythromycin combined with peptide at 32 μg/ml) | Antibiotic MIC, Erythromycin (E. coli [1]; erythromycin combined with peptide at 64 μg/ml) | Antibiotic MIC, Linezolid (E. coli [1]; linezolid combined with peptide at 32 μg/ml) | Antibiotic MIC, Linezolid (E. coli [1]; linezolid combined with peptide at 64 μg/ml) | Antibiotic MIC, Vancomycin (E. coli [1]; vancomycin combined with peptide at 32 μg/ml) | Antibiotic MIC, Vancomycin (E. coli [1]; vancomycin combined with peptide at 64 μg/ml) | Peptide MIC (MDREC 1229 [2]; [9]) | Peptide MIC (MDREC 1229 [2]; with Linezolid 512 μg/ml (Conc./MIC 1)) | Peptide MIC (E. coli [3]; [9]) | Peptide MIC (E. coli [3]; with Linezolid […] (Conc./MIC 1)) | Peptide MIC (E. coli [3]; with Vancomycin 1024 μg/ml (Conc./MIC 1)) | Antibiotic MIC, Erythromycin (MDREC 1229 [4]; [17]) | Antibiotic MIC, Linezolid (MDREC 1229 [4]; [17]) | Antibiotic MIC, Vancomycin (MDREC 1229 [4]; [17]) | Peptide MIC during treatment with erythromycin (MDRAB 12035; [21]) | Peptide MIC during treatment with linezolid (MDRAB 12035; linezolid 512 μg/ml (Conc./MIC 1)) | Peptide MIC during treatment with antibiotic (A. baumannii [5]; [21]) | Peptide MIC during treatment with antibiotic (A. baumannii [5]; linezolid […] (Conc./MIC 1)) | Peptide MIC during treatment with antibiotic (A. baumannii [5]; [23]) | Antibiotic MIC, Erythromycin (A. baumannii [8]; [30]) | Antibiotic MIC, Linezolid (A. baumannii [8]; [30]) | Antibiotic MIC, Vancomycin (A. baumannii [8]; [30]) | Antibiotic MIC, Erythromycin (A. baumannii [8]; [31]) | Antibiotic MIC, Linezolid (A. baumannii [8]; [31]) | Antibiotic MIC, Vancomycin (A. baumannii [8]; [31])
0.25 µg/mL: Antibiotic MIC, Erythromycin (E. coli [1]; erythromycin combined with peptide at 16 μg/ml) | Antibiotic MIC, Erythromycin (A. baumannii [8]; [28])
128 µg/mL: Antibiotic MIC, Erythromycin (E. coli [1]; erythromycin combined with peptide at 1 μg/ml) | Antibiotic MIC, Linezolid (E. coli [1]; linezolid combined with peptide at 4 μg/ml) | Antibiotic MIC, Linezolid (MDREC 1229 [4]; [12])
8 µg/mL: Antibiotic MIC, Erythromycin (E. coli [1]; erythromycin combined with peptide at 4 μg/ml) | Antibiotic MIC, Linezolid (E. coli [1]; linezolid combined with peptide at 8 μg/ml) | Antibiotic MIC, Erythromycin (MDREC 1229 [4]; [12]) | Antibiotic MIC, Linezolid (MDREC 1229 [4]; [16]) | Antibiotic MIC, Vancomycin (MDREC 1229 [4]; [16]) | Peptide MIC during treatment with erythromycin (MDRAB 12035; [18]) | Peptide MIC during treatment with erythromycin (MDRAB 12035; [19]) | Antibiotic MIC, Erythromycin (A. baumannii [8]; [25]) | Antibiotic MIC, Vancomycin (A. baumannii [8]; [28])
16 µg/mL: Minimal inhibitory concentration MIC (P. aeruginosa) | Antibiotic MIC, Vancomycin (E. coli [1]; vancomycin combined with peptide at 8 μg/ml) | Antibiotic MIC, Linezolid (MDREC 1229 [4]; [15]) | Antibiotic MIC, Vancomycin (MDREC 1229 [4]; [15]) | Antibiotic MIC, Linezolid (A. baumannii [8]; [27]) | Antibiotic MIC, Vancomycin (A. baumannii [8]; [27])
1 µg/mL: Antibiotic MIC, Erythromycin (MDREC 1229 [4]; [14]) | Peptide MIC during treatment with linezolid (MDRAB 12035; linezolid […] (Conc./MIC 1/2)) | Peptide MIC during treatment with vancomycin (MDRAB 12035; [23]) | Peptide MIC during treatment with antibiotic (A. baumannii [5]; [22]) | Peptide MIC during treatment with antibiotic (A. baumannii [5]; vancomycin […] (Conc./MIC 1/4)) | Antibiotic MIC, Linezolid (A. baumannii [8]; [29])
64 µg/mL: Antibiotic MIC, Erythromycin (E. coli [1]; erythromycin combined with peptide at 2 μg/ml) | Antibiotic MIC, Vancomycin (E. coli [1]; vancomycin combined with peptide at 4 μg/ml) | Antibiotic MIC, Erythromycin (MDREC 1229 [4]; [11]) | Minimal inhibitory concentration MIC (MDREC 1229 [6]) | Antibiotic MIC, Linezolid (A. baumannii [8]; [25]) | Minimal inhibitory concentration MIC (MDRST 8009)
